Tests used:
wheat = experiment: Test B pre/postemergence wheat; type: in vivo, Triticum aestivum
Summary of the method: (§1)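 Response is a visual 0-to-10 score relative to untreated plants, where 0 means no effect and 10 means complete control, taken twelve to sixteen days after application. Treatments went onto soil at planting and onto foliage of 1- to 4-leaf plants, using a surfactant-containing non-phytotoxic solvent.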

soybean = experiment: Test B pre/postemergence soybean; type: in vivo, Glycine max
Summary of the method: as §1

wild oat = experiment: Test B pre/postemergence wild oat; type: in vivo, Avena fatua
Summary of the method: as §1

crabgrass = experiment: Test B pre/postemergence crabgrass; type: in vivo, Digitaria sanguinalis
Summary of the method: as §1

smallflower flatsedge = experiment: Test B flood test smallflower flatsedge; type: in vivo, Cyperus difformis; conditions: for Plant response rating, S. Flatsedge (0 to 10 scale, 0 is no effect, 10 is complete control) / S. Flatsedge plant response rating (0 to 10 scale, 0 is no effect, 10 is complete control): visual evaluation after twelve to sixteen days; for S. Flatsedge plant response rating (0 to 10 scale, 0 is no effect, 10 is complete control): under heading Pre-emergence
Summary of the method: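 Plants were grown to the 2-leaf stage before treatment with test chemical, then held in a greenhouse for twelve to sixteen days. Injury was visually rated against untreated controls on a 0–10 scale, where 0 is no effect and 10 is complete control.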

[1] = Postemergence, Rate 62 g/ha, scale 0 to 10, 0 is no effect, 10 is complete control
[2] = Postemergence, Rate 250 g/ha, scale 0 to 10, 0 no effect, 10 complete control
[3] = Preemergence, Rate 62 g/ha, scale 0 to 10 (0 no effect, 10 complete control)
[4] = Preemergence, Rate 125 g/ha, scale 0 to 10 (0 no effect, 10 complete control)
[5] = Preemergence, Rate 250 g/ha, scale of 0 to 10 where 0 is no effect and 10 is complete control
[6] = Preemergence, Rate 500 g/ha, scale 0 (no effect) to 10 (complete control)
[7] = Rate 125 g/ha, Postemergence, scale 0 to 10, 0 no effect, 10 complete control
[8] = Rate 500 g/ha, Postemergence, scale 0 to 10, 0 no effect, 10 complete control
[9] = Rate 125 g/ha, Postemergence section (flood test species), scale 0 to 10, 0 no effect, 10 complete control
[10] = Rate 500 g/ha, listed under Postemergence (flood test species), scale 0 to 10, 0 no effect, 10 complete control
[11] = flood test, listed under Postemergence, Rate 250 g/ha, scale 0 to 10, 0 no effect, 10 complete control
[12] = Preemergence, Rate 62 g/ha, scale 0 to 10, 0 is no effect, 10 is complete control
[13] = Postemergence, Rate 250 g/ha, scale 0 to 10
[14] = Preemergence, Rate 62 g/ha, scale of 0 to 10 where 0 is no effect and 10 is complete control
[15] = Preemergence, Rate 125 g/ha, scale of 0 to 10 where 0 is no effect and 10 is complete control
[16] = Preemergence, Rate 250 g/ha, scale 0 to 10, 0 is no effect, 10 is complete control
[17] = Preemergence, Rate 500 g/ha, scale 0 to 10, 0 is no effect, 10 is complete control
[18] = Rate 62 g/ha, Postemergence, scale 0 to 10 (0 no effect, 10 complete control)
[19] = Rate 125 g/ha, Postemergence, scale 0 to 10, 0 is no effect, 10 is complete control
[20] = Rate 62 g/ha, flood test species, Pre-emergence
[21] = Rate 125 g/ha, flood test species
[22] = Rate 500 g/ha, Pre-emergence, flood test species, scale 0 to 10 (0 no effect, 10 complete control)
[23] = Postemergence, Rate 125 g/ha, scale 0 to 10, 0 is no effect, 10 is complete control
[24] = Postemergence, Rate 250 g/ha, scale 0 to 10, 0 is no effect, 10 is complete control
[25] = Preemergence, Rate 500 g/ha, scale of 0 to 10 where 0 is no effect and 10 is complete control
[26] = Rate 62 g/ha, Postemergence, scale of 0 to 10 where 0 is no effect and 10 is complete control

SMILES: COc1cccc(C)c1-n1c(=O)on(C(=O)N(c2ccc(F)cc2F)C(C)C)c1=O [Compound 74]
- Wheat plant response rating (wheat; [1]): 0
- Wheat plant response rating (wheat; [2]): 0
- Wheat plant response rating (wheat; [3]): 0
- Plant response rating, Wheat (wheat; [4]): 0
- Plant response rating, Wheat (wheat; [5]): 0
- Wheat plant response rating (wheat; [6]): 0
- Wheat plant response rating (wheat; [7]): 0
- Wheat plant response rating (wheat; [8]): 3
- Soybean plant response rating (soybean; [1]): 0
- Soybean plant response rating (soybean; [2]): 1
- Soybean plant response rating (soybean; [3]): 0
- Plant response rating, Soybean (soybean; [4]): 0
- Plant response rating, Soybean (soybean; [5]): 0
- Soybean plant response rating (soybean; [6]): 0
- Soybean plant response rating (soybean; [8]): 1
- Wild oats plant response rating (wild oat; [1]): 0
- Wild oats plant response rating (wild oat; [2]): 0
- Wild oats plant response rating (wild oat; [3]): 0
- Plant response rating, Wild oats (wild oat; [4]): 0
- Plant response rating, Wild oats (wild oat; [5]): 0
- Wild oats plant response rating (wild oat; [6]): 0
- Wild oats plant response rating (wild oat; [7]): 0
- Wild oats plant response rating (wild oat; [8]): 2
- Crabgrass plant response rating (crabgrass; [1]): 0
- Crabgrass plant response rating (crabgrass; [2]): 4
- Crabgrass plant response rating (crabgrass; [3]): 2
- Plant response rating, Crabgrass (crabgrass; [4]): 2
- Plant response rating, Crabgrass (crabgrass; [5]): 5
- Crabgrass plant response rating (crabgrass; [6]): 8
- Crabgrass plant response rating (crabgrass; [7]): 2
- Crabgrass plant response rating (crabgrass; [8]): 7
- S. Flatsedge plant response rating (smallflower flatsedge; [1]): 0
- S. Flatsedge plant response rating (smallflower flatsedge; [9]): 0
- S. Flatsedge plant response rating (smallflower flatsedge; [10]): 0
- S. Flatsedge plant response rating (smallflower flatsedge; [11]): 0

SMILES: Cc1cccc(Cl)c1-n1c(=O)on(C(=O)N(c2ccc(F)cc2)C(C)C)c1=O [Compound 53]
- Wheat plant response rating (wheat; [1]): 0
- Wheat plant response rating (wheat; [2]): 0
- Plant response rating, Wheat (wheat; [12]): 0
- Plant response rating, Wheat (wheat; [4]): 0
- Plant response rating, Wheat (wheat; [5]): 0
- Wheat plant response rating (wheat; [6]): 0
- Wheat plant response rating (wheat; [7]): 0
- Wheat plant response rating (wheat; [8]): 0
- Soybean plant response rating (soybean; [1]): 3
- Soybean plant response rating (soybean; [2]): 3
- Plant response rating, Soybean (soybean; [12]): 0
- Plant response rating, Soybean (soybean; [4]): 0
- Plant response rating, Soybean (soybean; [5]): 0
- Soybean plant response rating (soybean; [6]): 0
- Soybean plant response rating (soybean; [7]): 3
- Soybean plant response rating (soybean; [8]): 3
- Wild oats plant response rating (wild oat; [1]): 0
- Wild oats plant response rating (wild oat; [2]): 0
- Plant response rating, Wild oats (wild oat; [4]): 0
- Plant response rating, Wild oats (wild oat; [5]): 0
- Wild oats plant response rating (wild oat; [6]): 0
- Wild oats plant response rating (wild oat; [7]): 0
- Wild oats plant response rating (wild oat; [8]): 2
- Crabgrass plant response rating (crabgrass; [1]): 1
- Crabgrass plant response rating (crabgrass; [2]): 6
- Plant response rating, Crabgrass (crabgrass; [12]): 3
- Plant response rating, Crabgrass (crabgrass; [4]): 5
- Plant response rating, Crabgrass (crabgrass; [5]): 7
- Crabgrass plant response rating (crabgrass; [6]): 10
- Crabgrass plant response rating (crabgrass; [7]): 4
- Crabgrass plant response rating (crabgrass; [8]): 10
- S. Flatsedge plant response rating (smallflower flatsedge; [1]): 0
- S. Flatsedge plant response rating (smallflower flatsedge; [9]): 0
- S. Flatsedge plant response rating (smallflower flatsedge; [10]): 0
- S. Flatsedge plant response rating (smallflower flatsedge; [11]): 0

SMILES: CC(C)N(C(=O)n1oc(=O)n(CCCl)c1=O)c1ccccc1 [Compound 469]
- Wheat plant response rating (wheat; [13]): 3
- Plant response rating, Wheat (wheat; [14]): 0
- Plant response rating, Wheat (wheat; [15]): 2
- Wheat plant response rating (wheat; [16]): 3
- Wheat plant response rating (wheat; [17]): 6
- Wheat plant response rating (wheat; [18]): 0
- Wheat plant response rating (wheat; [19]): 0
- Soybean plant response rating (soybean; [13]): 4
- Plant response rating, Soybean (soybean; [14]): 0
- Plant response rating, Soybean (soybean; [15]): 0
- Soybean plant response rating (soybean; [16]): 0
- Soybean plant response rating (soybean; [17]): 2
- Soybean plant response rating (soybean; [18]): 0
- Soybean plant response rating (soybean; [19]): 1
- Wild oats plant response rating (wild oat; [13]): 3
- Plant response rating, Wild oats (wild oat; [14]): 7
- Plant response rating, Wild oats (wild oat; [15]): 7
- Wild oats plant response rating (wild oat; [16]): 10
- Wild oats plant response rating (wild oat; [17]): 10
- Wild oats plant response rating (wild oat; [18]): 0
- Crabgrass plant response rating (crabgrass; [13]): 9
- Crabgrass plant response rating (crabgrass; Postemergence, Rate 500 g/ha, scale of 0 to 10 where 0 is no effect and 10 is complete control): 9
- Plant response rating, Crabgrass (crabgrass; [14]): 9
- Plant response rating, Crabgrass (crabgrass; [15]): 10
- Crabgrass plant response rating (crabgrass; [16]): 10
- Crabgrass plant response rating (crabgrass; [17]): 10
- Crabgrass plant response rating (crabgrass; [18]): 3
- Crabgrass plant response rating (crabgrass; [19]): 6
- Plant response rating, S. Flatsedge (0 to 10 scale, 0 is no effect, 10 is complete control) (smallflower flatsedge; [20]): 0
- S. Flatsedge plant response rating (0 to 10 scale, 0 is no effect, 10 is complete control) (smallflower flatsedge; [21]): 0
- S. Flatsedge plant response rating (smallflower flatsedge; Rate 250 g/ha, Pre-emergence (flood test species), scale 0 to 10, 0 is no effect, 10 is complete control): 0
- S. Flatsedge plant response rating (smallflower flatsedge; [22]): 0

SMILES: Cc1nsc(Cl)c1Cn1c(=O)on(C(=O)N(c2ccccc2)C(C)C)c1=O [Compound 374]
- Plant response rating, Wheat (wheat; [23]): 0
- Plant response rating, Wheat (wheat; [24]): 0
- Plant response rating, Wheat (wheat; [3]): 0
- Wheat plant response rating (0 to 10 scale) (wheat; Preemergence, Rate 125 g/ha): 0
- Wheat plant response rating (wheat; [5]): 0
- Wheat plant response rating (wheat; [25]): 0
- Wheat plant response rating (wheat; [26]): 0
- Plant response rating, Wheat (wheat; [8]): 0
- Plant response rating, Soybean (soybean; [23]): 2
- Plant response rating, Soybean (soybean; [24]): 2
- Plant response rating, Soybean (soybean; [3]): 0
- Soybean plant response rating (0 to 10 scale) (soybean; Preemergence, Rate 125 g/ha): 0
- Soybean plant response rating (soybean; [5]): 0
- Soybean plant response rating (soybean; [25]): 0
- Soybean plant response rating (soybean; [26]): 2
- Plant response rating, Soybean (soybean; [8]): 4
- Plant response rating, Wild oats (wild oat; [23]): 0
- Plant response rating, Wild oats (wild oat; [24]): 0
- Plant response rating, Wild oats (wild oat; [3]): 0
- Wild oats plant response rating (0 to 10 scale) (wild oat; Preemergence, Rate 125 g/ha): 0
- Wild oats plant response rating (wild oat; [5]): 0
- Wild oats plant response rating (wild oat; [25]): 0
- Wild oats plant response rating (wild oat; [26]): 0
- Plant response rating, Crabgrass (crabgrass; [23]): 0
- Plant response rating, Crabgrass (crabgrass; [24]): 0
- Plant response rating, Crabgrass (crabgrass; [3]): 6
- Crabgrass plant response rating (0 to 10 scale) (crabgrass; Preemergence, Rate 125 g/ha): 6
- Crabgrass plant response rating (crabgrass; [5]): 9
- Crabgrass plant response rating (crabgrass; [25]): 9
- Crabgrass plant response rating (crabgrass; [26]): 0
- Plant response rating, Crabgrass (crabgrass; [8]): 3
- Plant response rating, S. Flatsedge (0 to 10 scale, 0 is no effect, 10 is complete control) (smallflower flatsedge; [20]): 0
- S. Flatsedge plant response rating (0 to 10 scale, 0 is no effect, 10 is complete control) (smallflower flatsedge; [21]): 0
- S. Flatsedge plant response rating (smallflower flatsedge; Rate 250 g/ha, Pre-emergence, flood-test species, scale 0 to 10, 0 is no effect, 10 is complete control): 0
- S. Flatsedge plant response rating (smallflower flatsedge; [22]): 0

— US6737383B1, “Herbicidal oxadiazolidines” (priority 1999, dated 2004)
